In BindingDB's records for doi:10.1021/jm980023c (F. Hoffmann-La Roche, 1998):
pIC50: −log10 of the molar value.

These compounds were tested against Beta-lactamase (Pseudomonas aeruginosa (strain ATCC 15692 / DSM 22644 / CIP 104116 / JCM 14847 / LMG 12228 / 1C / PRS 101 / PAO1), UniProt P24735) (assay: Deacylation of 18SH Beta-lactamase of Pseudomonas aeruginosa).
Beta-lactamase, sequence (P24735 whole entry): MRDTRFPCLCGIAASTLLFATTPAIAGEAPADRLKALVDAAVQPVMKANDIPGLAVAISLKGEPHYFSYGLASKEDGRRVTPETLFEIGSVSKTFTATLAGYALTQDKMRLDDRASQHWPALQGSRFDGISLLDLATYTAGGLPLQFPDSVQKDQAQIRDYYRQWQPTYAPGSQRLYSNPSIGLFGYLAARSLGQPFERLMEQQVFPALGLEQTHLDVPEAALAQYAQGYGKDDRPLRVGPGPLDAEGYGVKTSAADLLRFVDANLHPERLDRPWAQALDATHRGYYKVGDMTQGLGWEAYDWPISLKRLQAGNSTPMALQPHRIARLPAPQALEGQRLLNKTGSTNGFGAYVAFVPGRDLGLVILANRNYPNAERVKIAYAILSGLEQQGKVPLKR
With `O=C(NC1CCNCC1)N1CC[C@@H]2[C@H]1C(=O)N2S(=O)(=O)O` [Sodium; (1S,5R)-7-oxo-2-(piperidin-4-ylcarbamoyl)-2,6-diaza-bicyclo[3.2.0]heptane-6-sulfonate] the “koff” value was 0.0012 s⁻¹. `CC(C)(C)OC(=O)N1CC[C@@H]2[C@H]1C(=O)N2S(=O)(=O)O` [Sodium; (1S,5R)-2-tert-butoxycarbonyl-7-oxo-2,6-diaza-bicyclo[3.2.0]heptane-6-sulfonate] was tested, and the “koff” value was 0.000037 s⁻¹. With `CC(C)(C)OC(=O)N1CCC[C@@H]2[C@H]1C(=O)N2S(=O)(=O)O` [Sodium; (1S,6R)-2-tert-butoxycarbonyl-8-oxo-2,7-diaza-bicyclo[4.2.0]octane-7-sulfonate] the “koff” value was 0.0007 s⁻¹.

Each compound was assayed against Beta-lactamase TEM-3 (Escherichia coli) (assay: Inhibitory activity against Escherichia coli TEM-3 Beta-lactamase).
`O=C(CNc1ccc(O)cc1)N1CC[C@@H]2[C@H]1C(=O)N2S(=O)(=O)O` [Sodium; (1S,5R)-2-[2-(4-hydroxy-phenylamino)-acetyl]-7-oxo-2,6-diaza-bicyclo[3.2.0]heptane-6-sulfonate] was tested, and the pIC50 was 4.10. `O=C(OCc1ccccc1)N1CC[C@@H]2[C@H]1C(=O)N2S(=O)(=O)O` [Sodium; (1S,5R)-2-benzyloxycarbonyl-7-oxo-2,6-diaza-bicyclo[3.2.0]heptane-6-sulfonate] showed a pIC50 of under 4.00. `O=C(NC1CCNCC1)N1CC[C@@H]2[C@H]1C(=O)N2S(=O)(=O)O` [Sodium; (1S,5R)-7-oxo-2-(piperidin-4-ylcarbamoyl)-2,6-diaza-bicyclo[3.2.0]heptane-6-sulfonate] gave a pIC50 of under 4.00. Work on `NC(=O)Nc1ccc(NC(=O)N2CC[C@@H]3[C@H]2C(=O)N3S(=O)(=O)O)cc1` [Sodium; (1S,5R)-7-oxo-2-(4-ureido-phenylcarbamoyl)-2,6-diaza-bicyclo[3.2.0]heptane-6-sulfonate] yielded a pIC50 of 4.00. `Cn1nnnc1S[C@@H]1CN(C(=O)OCc2ccccc2)[C@@H]2C(=O)N(S(=O)(=O)O)[C@@H]21` [Sodium; (1S,4R,5S)-2-benzyloxycarbonyl-4-(1-methyl-1H-tetrazol-5-ylsulfanyl)-7-oxo-2,6-diaza-bicyclo[3.2.0]heptane-6-sulfonate] was tested, and the pIC50 was 7.46. `NC(=O)c1ccc[n+](CC(=O)N2CC[C@@H]3[C@H]2C(=O)N3S(=O)(=O)[O-])c1` gave a pIC50 of 6.15. In the case of `NC(=O)/C=C1\CN(C(=O)OCc2ccccc2)[C@@H]2C(=O)N(S(=O)(=O)O)[C@H]12` [Sodium; (1S,5R)-2-benzyloxycarbonyl-4-[1-carbamoyl-meth-(E)-ylidene]-7-oxo-2,6-diaza-bicyclo[3.2.0]heptane-6-sulfonate], the pIC50 was 7.51. `NC(=O)c1cccc(NC(=O)N2CC[C@@H]3[C@H]2C(=O)N3S(=O)(=O)O)c1` [Sodium; (1S,5R)-2-(3-carbamoyl-phenylcarbamoyl)-7-oxo-2,6-diaza-bicyclo[3.2.0]heptane-6-sulfonate] was tested, and the pIC50 was 5.40. With `O=C(Nc1ccc(O)cc1)N1CC[C@@H]2[C@H]1C(=O)N2S(=O)(=O)O` [Sodium; (1S,5R)-2-(4-hydroxy-phenylcarbamoyl)-7-oxo-2,6-diaza-bicyclo[3.2.0]heptane-6-sulfonate] the pIC50 was under 4.00. `Cc1nn(C)c(SCC(=O)N2CC[C@@H]3[C@H]2C(=O)N3S(=O)(=O)O)nc1=O` [Sodium; (1S,5R)-2-[2-(2,6-dimethyl-5-oxo-2,5-dihydro-[1,2,4]triazin-3-ylsulfanyl)-acetyl]-7-oxo-2,6-diaza-bicyclo[3.2.0]heptane-6-sulfonate] was tested, and the pIC50 was under 4.00. `Cn1cnnc1SCC(=O)N1CC[C@@H]2[C@H]1C(=O)N2S(=O)(=O)O` [Sodium; (1S,5R)-2-[2-(4-methyl-4H-[1,2,4]triazol-3-ylsulfanyl)-acetyl]-7-oxo-2,6-diaza-bicyclo[3.2.0]heptane-6-sulfonate] showed a pIC50 of under 4.00. `CC(C)(C)OC(=O)N1CC[C@@H]2[C@H]1C(=O)N2S(=O)(=O)O` [Sodium; (1S,5R)-2-tert-butoxycarbonyl-7-oxo-2,6-diaza-bicyclo[3.2.0]heptane-6-sulfonate] gave a pIC50 of under 4.00. `CC(C)(C)OC(=O)N1CCC[C@@H]2[C@H]1C(=O)N2S(=O)(=O)O` [Sodium; (1S,6R)-2-tert-butoxycarbonyl-8-oxo-2,7-diaza-bicyclo[4.2.0]octane-7-sulfonate] showed a pIC50 of under 4.00. `NC(=O)c1ccc(NC(=O)N2CC[C@@H]3[C@H]2C(=O)N3S(=O)(=O)O)cc1` [Sodium; (1S,5R)-2-(4-carbamoyl-phenylcarbamoyl)-7-oxo-2,6-diaza-bicyclo[3.2.0]heptane-6-sulfonate] gave a pIC50 of under 4.00. For `O=C1NCC[C@@H]1NC(=O)N1CC[C@@H]2[C@H]1C(=O)N2S(=O)(=O)O` [Sodium; (1S,5R)-7-oxo-2-((S)-2-oxo-pyrrolidin-3-ylcarbamoyl)-2,6-diaza-bicyclo[3.2.0]heptane-6-sulfonate], the pIC50 was under 4.00. `O=C(OCc1ccccc1)N1C[C@H](F)[C@@H]2[C@H]1C(=O)N2S(=O)(=O)O` [Sodium; (1S,4S,5S)-2-benzyloxycarbonyl-4-fluoro-7-oxo-2,6-diaza-bicyclo[3.2.0]heptane-6-sulfonate] showed a pIC50 of 6.29. `Cn1ccnc1SCC(=O)N1CC[C@@H]2[C@H]1C(=O)N2S(=O)(=O)O` [Sodium; (1S,5R)-2-[2-(1-methyl-1H-imidazol-2-ylsulfanyl)-acetyl]-7-oxo-2,6-diaza-bicyclo[3.2.0]heptane-6-sulfonate] was tested, and the pIC50 was under 4.00. `Cn1nnnc1SCC(=O)N1CC[C@@H]2[C@H]1C(=O)N2S(=O)(=O)O` [Sodium; (1S,5R)-2-[2-(1-methyl-1H-tetrazol-5-ylsulfanyl)-acetyl]-7-oxo-2,6-diaza-bicyclo[3.2.0]heptane-6-sulfonate] gave a pIC50 of under 4.00. Compound `NC(C(=O)N1CC[C@@H]2[C@H]1C(=O)N2S(=O)(=O)O)c1ccc(O)cc1` (stereo partly drawn) [Sodium; (1S,5R)-2-[2-amino-2-(4-hydroxy-phenyl)-acetyl]-7-oxo-2,6-diaza-bicyclo[3.2.0]heptane-6-sulfonate] has a pIC50 of under 4.00.
